25 molecules from US8962639B2, “Potassium channel modulators” (AbbVie Inc., priority 2009, dated 2015) can be followed below.

This assay concerns the target T1, human KCNQ2 and KCNQ3 (Homo sapiens, UniProt O43525+O43526).
T1 construct: expressed in transfected cells; host or cells: HEK293
Put plainly: KCNQ 2/3 channel activation, thallium flux FLIPR assay (BTC-AM dye) in HEK293 cells. The assay is classed as cell-based. The note with it: for Emax: HEK293, maximum response relative to response of retigabine at 10 μM set at 100%, read-out: Max response; for EC50: HEK293 cells stably expressing human KCNQ2 and KCNQ3, compound incubated 4 minutes, Tl+ flux fluorescence. As to the method:
The following example describes the assay that can be used to identify compounds that activate KCNQ 2/3 channels.
HEK293 cells stably expressing human KCNQ2 and KCNQ3 were seeded in 96-well, black-walled, clear-bottomed, poly-D-lysine coated plates (BD Biosciences, Bedford, Mass.) at a density of 1×10^5 cells per well 24 hours before the assay. On the assay day, BTC-AM dye (Invitrogen, Carlsbad, Calif.) was loaded into the cells by replacing the cell culture medium with 100 μL/well of 4 μM dye in DPBS. Dye loading was allowed to proceed for 2 hours at room temperature and then cells were washed twice in 100 μL/well of assay buffer (in mM: 10 HEPES pH 7.3, 5 glucose, 140 Na-gluconate, 2.5 K-gluconate, 3.6 Ca-gluconate, 2 MgSO4, 0.1 Ouabain) to remove unloaded dye. Cells were incubated in 50 μL of assay buffer before loading onto a FLIPR system (Molecular Devices, Sunnyvale, Calif.). Various concentrations of compounds to be assayed were added to the cells in 50 μL of assay buffer and incubated for 4 minutes. The fluorescence signal was initiated by adding 100 μL of assay buffer containing 6 mM TlNO3 and 10 mM K2SO4. Fluors were excited using the 488-nm line of an argon laser and emission was filtered using a 540±30 nm bandpass filter. Fluorescent signals were recorded for 3 minutes. Responses over baseline values were plotted versus concentrations of test compounds to obtain an EC50 value. The maximum response for each test compound was determined relative to the response produced at 10 μM by retigabine. The maximum response of retigabine at 10 μM was set at 100%.

T1 sequence (O43526 whole entry): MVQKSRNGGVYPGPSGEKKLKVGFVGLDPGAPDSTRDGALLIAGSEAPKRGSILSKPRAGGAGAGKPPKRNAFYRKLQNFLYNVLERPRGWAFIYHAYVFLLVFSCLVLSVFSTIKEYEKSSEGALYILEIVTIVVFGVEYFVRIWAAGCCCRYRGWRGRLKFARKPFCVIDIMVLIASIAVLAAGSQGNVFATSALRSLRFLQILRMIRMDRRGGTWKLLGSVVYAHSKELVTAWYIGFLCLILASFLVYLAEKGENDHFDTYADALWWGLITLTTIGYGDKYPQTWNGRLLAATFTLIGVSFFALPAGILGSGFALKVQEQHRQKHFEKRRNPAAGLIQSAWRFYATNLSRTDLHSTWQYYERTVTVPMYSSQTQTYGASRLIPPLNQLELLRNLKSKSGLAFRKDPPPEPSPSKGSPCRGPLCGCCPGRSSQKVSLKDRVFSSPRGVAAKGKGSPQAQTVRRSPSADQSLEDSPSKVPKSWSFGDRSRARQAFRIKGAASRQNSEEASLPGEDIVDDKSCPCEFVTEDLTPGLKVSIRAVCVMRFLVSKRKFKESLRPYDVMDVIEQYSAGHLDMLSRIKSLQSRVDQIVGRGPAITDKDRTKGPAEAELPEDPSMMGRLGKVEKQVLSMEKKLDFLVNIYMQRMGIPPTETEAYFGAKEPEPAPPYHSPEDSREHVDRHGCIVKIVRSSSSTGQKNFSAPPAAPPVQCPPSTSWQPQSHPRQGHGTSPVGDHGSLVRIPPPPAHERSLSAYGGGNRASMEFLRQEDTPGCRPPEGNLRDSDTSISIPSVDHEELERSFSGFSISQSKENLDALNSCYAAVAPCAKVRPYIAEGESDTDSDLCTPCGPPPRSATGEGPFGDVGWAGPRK
T1 sequence (O43525 whole entry): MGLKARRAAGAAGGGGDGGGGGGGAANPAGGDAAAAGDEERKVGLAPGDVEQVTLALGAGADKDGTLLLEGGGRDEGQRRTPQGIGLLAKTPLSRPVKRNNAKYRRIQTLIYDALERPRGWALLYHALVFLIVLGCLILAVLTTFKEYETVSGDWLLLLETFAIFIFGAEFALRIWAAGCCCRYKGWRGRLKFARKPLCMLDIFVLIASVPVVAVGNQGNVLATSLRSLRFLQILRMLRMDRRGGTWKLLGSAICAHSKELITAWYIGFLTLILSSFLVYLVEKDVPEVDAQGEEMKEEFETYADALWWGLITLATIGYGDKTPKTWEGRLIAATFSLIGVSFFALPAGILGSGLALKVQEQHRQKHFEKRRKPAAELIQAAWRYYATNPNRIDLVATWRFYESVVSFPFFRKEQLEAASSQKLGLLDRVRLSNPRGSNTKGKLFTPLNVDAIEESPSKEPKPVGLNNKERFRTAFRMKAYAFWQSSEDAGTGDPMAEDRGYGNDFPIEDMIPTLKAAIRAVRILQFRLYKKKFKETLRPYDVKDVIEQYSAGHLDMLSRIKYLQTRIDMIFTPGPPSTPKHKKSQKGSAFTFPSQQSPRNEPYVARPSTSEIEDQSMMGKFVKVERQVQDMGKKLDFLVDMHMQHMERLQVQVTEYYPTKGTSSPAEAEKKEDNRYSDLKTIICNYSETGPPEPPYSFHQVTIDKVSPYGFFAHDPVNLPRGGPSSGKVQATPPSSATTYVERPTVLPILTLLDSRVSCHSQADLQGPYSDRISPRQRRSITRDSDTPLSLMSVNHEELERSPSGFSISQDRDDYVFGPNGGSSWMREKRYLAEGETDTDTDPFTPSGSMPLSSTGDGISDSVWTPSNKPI

In the case of `CCc1nc2sccc2c(=O)n1NC(=O)CC12CC3CC(CC(Cl)(C3)C1)C2` [Example 52, 2-[3-chloro-1-adamantyl]-N-(2-ethyl-4-oxothieno[2,3-d]pyrimidin-3(4H)-yl)acetamide], the Emax was determined as 109% and the EC50 stood at 7910 nM.
In turn, `CC(C)c1nc2ccccc2c(=O)n1NC(=O)CC1CC2CCC1C2` (single isomer, unassigned; (+)) [Example 30, (+)-exo-2-[bicyclo[2.2.1]hept-2-yl]-N-(2-isopropyl-4-oxoquinazolin-3(4H)-yl)acetamide] came in with an EC50 of 47.7 nM. Moreover, for the setting “maximum response relative to response of retigabine at 10 μM set at 100%”, the Max response was found to be 145%.
For `CC(C)c1nc2ccccc2c(=O)n1NC(=O)CC12CC3CC(CC(Cl)(C3)C1)C2` [Example 21, 2-[3-chloro-1-adamantyl]-N-(2-isopropyl-4-oxoquinazolin-3(4H)-yl)acetamide], the Emax came out at 132% and the half-maximal effective concentration (EC50) is 403 nM.
For `Cc1nc2cc(Cl)ccc2c(=O)n1NC(=O)CC12CC3CC(CC(C3)C1)C2` [Example 35, 2-(1-adamantyl)-N-(7-chloro-2-methyl-4-oxoquinazolin-3(4H)-yl)acetamide] the same measures were 20.8% and above 30000 nM.
On the same counts, the results for `Cc1nc2sccc2c(=O)n1NC(=O)CC12CC3CC(CC(C3)C1)C2` [Example 17, 2-(1-adamantyl)-N-(2-methyl-4-oxothieno[2,3-d]pyrimidin-3(4H)-yl)acetamide] are 61.1% and 2500 nM.
Take `O=C(CC12CC3CC(CC(C3)C1)C2)Nn1cnc2ccc(Br)cc2c1=O` [Example 36, 2-(1-adamantyl)-N-(6-bromo-4-oxoquinazolin-3(4H)-yl)acetamide]: the Emax worked out at 10.8% and the EC50 was above 30000 nM.
For `O=C(CC12CC3CC(CC(C3)C1)C2)Nn1cnc2ccc(Cl)cc2c1=O` [Example 16, 2-(1-adamantyl)-N-(6-chloro-4-oxoquinazolin-3(4H)-yl)acetamide] the same measures were 32.1% and 261 nM.
For `O=C(CC1CC2CCC1C2)Nn1cnc2ccccc2c1=O` (racemic) [Example 10, (±)-exo-2-bicyclo[2.2.1]hept-2-yl-N-(4-oxoquinazolin-3(4H)-yl)acetamide] the same measures were 131% and 4950 nM.
For `CC(C)c1nc2ccccc2c(=O)n1NC(=O)CC1C2CCCC1CCC2` (centres unmarked) [Example 56, 2-bicyclo[3.3.1]non-9-yl-N-(2-isopropyl-4-oxoquinazolin-3(4H)-yl)acetamide], the Emax was 158% and a half-maximal response (EC50) required 104 nM.
Regarding `Cc1nc2sc3c(c2c(=O)n1NC(=O)CC12CC4CC(CC(C4)C1)C2)CCCC3` [Example 44, 2-(1-adamantyl)-N-(2-methyl-4-oxo-5,6,7,8-tetrahydro[1]benzothieno[2,3-d]pyrimidin-3(4 H)-yl)acetamide], the Emax stood at 81.8% and the EC50 is 2010 nM.
Turning to `CCc1nc2ccccc2c(=O)n1NC(=O)CC12CC3CC(CC(C3)C1)C2` [Example 9, 2-(1-adamantyl)-N-(2-ethyl-4-oxoquinazolin-3(4H)-yl)acetamide], the Emax was 124% and the midpoint of the response, the EC50, lay at 115 nM.
On to `O=C(Nn1c(-c2ccccc2)nc2ccccc2c1=O)[C@@H]1C[C@@H]2C=C[C@H]1C2` (racemic) [Example 33, (±)-(endo)-N-(4-oxo-2-phenylquinazolin-3(4H)-yl)bicyclo[2.2.1]hept-5-ene-2-carboxamide], for which the Emax is 65.4% and the EC50 came to 840 nM.
For `O=C(CCC12CC3CC(CC(C3)C1)C2)Nn1c(-c2ccccc2)nc2ccccc2c1=O` [Example 15, 3-(1-adamantyl)-N-(4-oxo-2-phenylquinazolin-3(4H)-yl)propanamide] the same measures were 79.7% and 309 nM.
On the same counts, the results for `CC(C)c1nc2ccccc2c(=O)n1NC(=O)CC1C2CC3CC(C2)CC1C3` (centres unmarked) [Example 1, 2-(2-adamantyl)-N-(2-isopropyl-4-oxoquinazolin-3(4H)-yl)acetamide] are 88.8% and 138 nM.
With `O=C(Nn1c(-c2ccccc2)nc2ccccc2c1=O)[C@@H]1[C@H]2[C@@H]3CC[C@@H](C3)[C@@H]12` [Example 39, (exo,exo)-N-(4-oxo-2-phenylquinazolin-3(4H)-yl)tricyclo[3.2.1.0^2,4]octane-3-carboxamide], the Emax was -23.5% and the EC50 was above 30000 nM.
For `CC(=O)Nn1c(C23CC4CC(CC2C4)C3)nc2ccccc2c1=O` [Example 4, N-(2-hexahydro-2,5-methanopentalen-3a(1H)-yl-4-oxoquinazolin-3(4H)-yl)acetamide] the same measures were 60.4% and 2720 nM.
Take `CC(C)c1nc2ccccc2c(=O)n1NC(=O)[C@@H]1C[C@@H]2CC[C@H]1C2` (racemic) [Example 22, (±)-endo-N-(2-isopropyl-4-oxoquinazolin-3(4H)-yl)bicyclo[2.2.1]heptane-2-carboxamide]: the Emax turned out to be 124% and the midpoint of the response, the EC50, lay at 404 nM.
Turning to `Cc1nc2ccccc2c(=O)n1NC(=O)CC12CC3CC(CC(C3)C1)C2` [Example 8, 2-(1-adamantyl)-N-(2-methyl-4-oxoquinazolin-3(4H)-yl)acetamide], the Emax amounted to 108% and the EC50 worked out at 684 nM.
On to `CC(C)c1nc2ccccc2c(=O)n1NC(=O)CC12CC3CC(CC(C3)C1)C2` [Example 5, 2-(1-adamantyl)-N-(2-isopropyl-4-oxoquinazolin-3(4H)-yl)acetamide], for which the Emax was determined as 122% and the EC50 came to 148 nM.
As to `O=C(CC12CC3CC(CC(C3)C1)C2)Nn1c(COc2ccccc2)nc2ccccc2c1=O` [Example 25, 2-(1-adamantyl)-N-[4-oxo-2-(phenoxymethyl)quinazolin-3(4H)-yl]acetamide], the Emax is 118% and the response was half-maximal at 3010 nM (EC50).
On to `CCc1nc2sccc2c(=O)n1NC(=O)CC12CC3CC(CC(C3)C1)C2` [Example 14, 2-(1-adamantyl)-N-(2-ethyl-4-oxothieno[2,3-d]pyrimidin-3(4H)-yl)acetamide], for which the Emax is 120% and the EC50 was found to be 691 nM.
For `O=C(CC12CC3CC(CC(C3)C1)C2)Nn1c(-c2ccccc2)nc2ccccc2c1=O` [Example 6, 2-(1-adamantyl)-N-(4-oxo-2-phenylquinazolin-3(4H)-yl)acetamide], the Emax was 103% and the response was half-maximal at 341 nM (EC50).
In the case of `CCc1nc2ccccc2c(=O)n1NC(=O)C12CC3CC(CC(C3)O1)C2` [Example 54, N-(2-ethyl-4-oxoquinazolin-3(4H)-yl)-2-oxatricyclo[3.3.1.1^3,7]decane-1-carboxamide], the Emax was determined as 5.5% and the EC50 is above 31600 nM.
On to `CC(C)c1nc2ccccc2c(=O)n1NC(=O)CCC12CC3CC(CC(C3)C1)C2` [Example 13, 3-(1-adamantyl)-N-(2-isopropyl-4-oxoquinazolin-3(4H)-yl)propanamide], for which the Emax came to 172% and a half-maximal response (EC50) required 399 nM.
For `CCc1nc2ccccc2c(=O)n1NC(=O)C[C@@H]1C[C@@H]2CC[C@@H](C2)C1` [Example 55, endo 2-[bicyclo[3.2.1]oct-3-yl]-N-(2-ethyl-4-oxoquinazolin-3(4H)-yl)acetamide] the same measures were 150% and 417 nM.

By EC50 is commonly meant the concentration needed to bring the measured effect to its halfway point. Low values mean higher potency in that assay, high ones lower potency in that assay.
